Assay results as given in US7488754B2, “Method for the treatment of polycystic kidney disease” (Wyeth, priority 2002, dated 2009).
Marks after values point to notes of the source that are not given here.

Experiments:
cystic bpk mice [1] = assay: Treatment of cystic bpk mice (bpk model of ARPKD); assay type: in vivo
Text: This model arose from a spontaneous mutation in a colony of BALB/C mice. Affected animals have many similarities to the human disease including collecting tubule (CT) cysts and biliary ectasia and fibrosis. The kidney disease has a consistent and severe phenotype. Mice homozygous for the bpk mutation have microscopic evidence of cyst formation at birth. Proximal tubule (PT) cysts are present at birth, which are gradually replaced by CT cysts as the disease progresses. Cyst expansion and kidney fibrosis result in death due to renal failure at 24-28 days. Heterozygotes show no phenotypic abnormalities and are identified by their ability to breed affected offspring. Unaffected (noncystic) littermates of cystic bpk mice are either wild-type or heterozygous at the bpk locus.
(§1) Cystic bpk mice and phenotypically normal littermates were injected with a dose of 100 mg/kg/dose of 1-acetyl-4-(4-but-2-ynyloxy-benzenesulfonyl)-2,3,4,5-tetrahydro-1 h-[1,4]benzodiazepine-3-carboxylic acid hydroxyamide given intraperitoneally once daily, in a vehicle containing 0.5% methocellulose (Fluka Biochemica, Ronkonkoma, N.Y.) and 2% Tween 80 (J T Baker, Phillipsburg, N.J.), beginning at postnatal day 7. Age-matched untreated cystic bpk mice and their noncystic littermates served as controls. At day 21, mice were sacrificed. Blood was obtained by orbital puncture prior to sacrifice. Kidney weight and body weight for treated and untreated cystic and noncystic mice were measured at sacrifice. Blood urea nitrogen (BUN) was assessed using a calorimetric assay. Serum creatinine was assessed using standard techniques in the hospital laboratory. Differences in clinical and laboratory parameters between treated and untreated cystic and noncystic mice were analyzed by two-tailed Student's t-test.
Kidneys were fixed in 4% paraformaldehyde and embedded in plastic. Segment-specific localization of cysts was assessed using lectins specific to proximal tubule (Lotus tetragonolobus, LTA), and collecting tubule (Dolichos biflorus agglutinin, DBA). Serial LTA and DBA stained sections were examined by light microscopy and assessed for severity of cystic dilatations in PTs and CTs, expressed on a scale of 0 to 5 using a modified cystic index: • 0=No cysts • 1=≦0.11 mm • 2=0.12-0.19 mm • 3=0.20-0.27 mm • 4=0.28-0.35 mm • 5=≧0.36 mm The total number of CT (DBA+/LTA−) cysts and PT (LTA+/DBA−) cysts within a section were counted and expressed as a ratio.
Mice were treated from day 7 of life until day 21, then sacrificed. […] The results are listed below in Tables 1, 2, and 3.

noncystic littermates = assay: Treatment of noncystic (phenotypically normal) littermates of bpk mice; assay type: in vivo; conditions: P-21 noncystic mice
Experimental: as §1

MMP-1 = molecular target: T1, MMP-1 (Homo sapiens, UniProt P03956); assay: MMP activity (IC 50), MMP-1; assay type: biochemical
T1 sequence (P03956 100-469): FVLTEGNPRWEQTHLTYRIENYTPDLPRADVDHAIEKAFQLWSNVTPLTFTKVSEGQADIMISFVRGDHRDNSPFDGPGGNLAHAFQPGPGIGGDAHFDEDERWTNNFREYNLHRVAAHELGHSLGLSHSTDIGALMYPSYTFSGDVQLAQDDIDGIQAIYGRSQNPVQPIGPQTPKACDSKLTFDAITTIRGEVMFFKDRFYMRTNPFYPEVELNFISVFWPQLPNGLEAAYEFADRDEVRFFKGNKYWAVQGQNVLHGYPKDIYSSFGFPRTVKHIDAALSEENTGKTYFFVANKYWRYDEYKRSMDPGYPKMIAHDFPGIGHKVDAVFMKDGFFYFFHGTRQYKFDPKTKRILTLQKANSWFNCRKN

MMP-9 = MMP-9 (Homo sapiens, UniProt P14780); assay: MMP activity (IC 50), MMP-9; assay type: biochemical
Chain of MMP-9 (P14780 94-707): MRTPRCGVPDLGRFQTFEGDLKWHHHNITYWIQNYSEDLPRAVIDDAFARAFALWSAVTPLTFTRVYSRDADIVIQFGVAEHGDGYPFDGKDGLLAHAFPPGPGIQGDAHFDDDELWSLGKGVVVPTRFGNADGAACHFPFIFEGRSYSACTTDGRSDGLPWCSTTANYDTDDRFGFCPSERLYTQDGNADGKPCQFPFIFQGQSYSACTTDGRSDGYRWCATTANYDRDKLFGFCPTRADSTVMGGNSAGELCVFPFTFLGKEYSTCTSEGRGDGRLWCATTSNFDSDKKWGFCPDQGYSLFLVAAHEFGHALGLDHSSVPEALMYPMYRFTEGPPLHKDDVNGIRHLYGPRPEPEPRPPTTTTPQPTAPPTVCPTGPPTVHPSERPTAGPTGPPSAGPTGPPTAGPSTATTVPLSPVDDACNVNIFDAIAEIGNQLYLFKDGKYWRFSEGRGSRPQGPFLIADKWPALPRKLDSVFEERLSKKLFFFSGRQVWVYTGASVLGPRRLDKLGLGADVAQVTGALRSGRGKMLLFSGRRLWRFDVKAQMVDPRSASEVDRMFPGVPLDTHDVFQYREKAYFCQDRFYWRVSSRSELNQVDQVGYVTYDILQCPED

MMP-13 = MMP-13 (Homo sapiens, UniProt P45452); assay: MMP activity (IC 50), MMP-13; assay type: biochemical
TACE = TACE (Homo sapiens, UniProt P78536); assay: TACE activity (IC 50); assay type: biochemical
Chain of TACE (P78536 215-824): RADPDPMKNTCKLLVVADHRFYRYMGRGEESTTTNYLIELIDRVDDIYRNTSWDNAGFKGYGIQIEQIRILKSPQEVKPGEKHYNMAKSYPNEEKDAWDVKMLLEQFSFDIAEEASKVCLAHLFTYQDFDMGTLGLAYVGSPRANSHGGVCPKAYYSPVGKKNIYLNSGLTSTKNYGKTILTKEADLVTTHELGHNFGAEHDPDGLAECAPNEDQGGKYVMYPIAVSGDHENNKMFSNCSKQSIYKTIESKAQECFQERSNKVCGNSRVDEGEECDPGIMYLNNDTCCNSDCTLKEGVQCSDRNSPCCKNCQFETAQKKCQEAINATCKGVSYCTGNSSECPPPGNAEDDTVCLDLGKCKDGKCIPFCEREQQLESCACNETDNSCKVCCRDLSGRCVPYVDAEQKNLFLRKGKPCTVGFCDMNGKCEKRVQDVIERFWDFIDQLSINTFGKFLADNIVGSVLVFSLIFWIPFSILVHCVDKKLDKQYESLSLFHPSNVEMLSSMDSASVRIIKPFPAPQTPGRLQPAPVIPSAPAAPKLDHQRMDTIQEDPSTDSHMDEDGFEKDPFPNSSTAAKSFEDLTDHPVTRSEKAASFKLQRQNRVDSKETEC

cystic bpk mice [2] = assay: Treatment of cystic bpk mice (bpk model of ARPKD); assay type: in vivo; conditions: B 50 mg/kg/day once daily IP day 7 to 21
[3] = P-21 cystic bpk mice, 100 mg/kg/dose intraperitoneally once daily from postnatal day 7, sacrifice day 21
[4] = 100 mg/kg/dose intraperitoneally once daily from postnatal day 7, sacrifice day 21

CC#CCOc1ccc(S(=O)(=O)N2Cc3ccccc3N(C(C)=O)CC2C(=O)NO)cc1 (stereo not drawn) [A, 1-Acetyl-4-(4-But-2-ynyloxy-Benzenesulfonyl)-2,3,4,5-Tetrahydro-1H-[1,4]Benzodiazepine-3-Carboxylic Acid Hydroxyamide]
BUN (cystic bpk mice [1]; P-21 cystic bpk mice, 100 mg/kg/dose intraperitoneally once daily from postnatal day 7, blood at day 21): 33 +/− 4^b** mg/dl | Body Weight (cystic bpk mice [1]; [3]): 8.2 +/− 1.3 grams | Kidney Weight (cystic bpk mice [1]; [3]): 0.93 +/− 0.2** grams | Kidney Weight to Body Weight (cystic bpk mice [1]; [3]): 11.2 +/− 1.3** percent | CT Cystic Index (graded 1–5) (cystic bpk mice [1]; collecting tubule cysts, DBA stained kidney sections, cystic mice, 100 mg/kg/dose IP once daily day 7 to 21): 3.2 +/− 0.4** | CT Cyst Size Range (cystic bpk mice [1]; collecting tubule cysts, cystic mice, 100 mg/kg/dose IP once daily day 7 to 21): 0.012–0.29 mm | Cystic Kidney Weight to Body Weight (cystic bpk mice [1]; cystic bpk mice, A 100 mg/kg/dose IP once daily day 7 to 21): 11.2 +/− 1.3% | PT Cystic Index (graded 1–5) (cystic bpk mice [1]; proximal tubule cysts, LTA stained kidney sections, cystic mice, 100 mg/kg/dose IP once daily day 7 to 21): 1.8 +/− 0.4 | PT Cyst Size Range (cystic bpk mice [1]; proximal tubule cysts, cystic mice, 100 mg/kg/dose IP once daily day 7 to 21): 0.012–0.17 mm | Creatinine (cystic bpk mice [1]; serum, P-21 cystic bpk mice, 100 mg/kg/dose intraperitoneally once daily from postnatal day 7, blood at day 21): 0.18 +/− 0.05^b mg/dl | Cystic CT/PT Ratio (cystic bpk mice [1]; total number of CT cysts to PT cysts within a section, cystic mice, 100 mg/kg/dose IP once daily day 7 to 21): 1.2** | BUN (noncystic littermates; 100 mg/kg/dose intraperitoneally once daily from postnatal day 7, blood at day 21): 17 +/− 4^d mg/dl | Body Weight (noncystic littermates; [4]): 8.5 +/− 1.0 grams | Kidney Weight (noncystic littermates; [4]): 0.13 +/− 0.01 grams | Kidney Weight to Body Weight (noncystic littermates; [4]): 1.5 +/− 0.1% | Creatinine (noncystic littermates; serum, 100 mg/kg/dose intraperitoneally once daily from postnatal day 7, blood at day 21): 0.15 +/− 0.05^e mg/dl | IC50 (MMP-1): 6.6 nM | IC50 (MMP-9): 12 nM | IC50 (MMP-13): 3 nM | IC50 (TACE): 8.4 nM

O=C(NO)C1(S(=O)(=O)c2ccc(Oc3ccc(Cl)cc3)cc2)CCN(Cc2ccccc2)CC1 [B, 1-Benzyl-4-[4-(4-chloro-phenoxy)-benzenesulfonyl]-piperidine-4-carboxylic acid hydroxamide]
Cystic Kidney Weight to Body Weight (cystic bpk mice [2]): 15.3 +/− 1.7%
